Assay results as given in the NIST ThermoML archive (doi:10.1021/acs.jced.7b01097).

Settings: 3000 kPa, Coriolis flow meter

CCCCCCCCCC [decane]
Settings	mass density [kg/m3]
285.3 K, Liquid	736.8
313.1 K, Liquid	716.24
343.4 K, Liquid	706.6
354.5 K, Liquid	682.3
373.3 K, Liquid	660.16
423.7 K, Liquid	630.21
475.8 K, Liquid	588.61
523.2 K, Liquid	547.44
571.8 K, Liquid	487.16
624.2 K, Liquid	365.9
673.2 K, Gas	143.74
700.3 K, Gas	112.44
723 K, Gas	96.77
